In US11053204B2, “Pyrimidinyloxy benzene derivatives as herbicides” (FMC Corporation, priority 2015, dated 2021):

Experiments:
Type in all cases: in vivo
kochia (Kochia scoparia) [1] = test: Test A postemergence, visual injury rating; details: 0 is no effect, 100 is complete control
From the text: (§1) Seeds of plant species selected from barnyardgrass (Echinochloa crus-galli), kochia (Kochia scoparia), ragweed (common ragweed, Ambrosia elatior), Italian ryegrass (Lolium multiflorum), large (Lg) crabgrass (Digitaria sanguinalis), giant foxtail (Setaria faberii), morningglory (Ipomoea spp.), pigweed (Amaranthus retroflexus), velvetleaf (Abutilon theophrasti), wheat (Triticum aestivum), and corn (Zea mays) were planted into a blend of loam soil and sand and treated preemergence with a directed soil spray using test chemicals formulated in a non-phytotoxic solvent mixture which included a surfactant.
(§2) At the same time, plants selected from these crop and weed species and also blackgrass (Alopecurus myosuroides), and galium (catchweed bedstraw, Galium aparine) were planted in pots containing the same blend of loam soil and sand and treated with postemergence applications of test chemicals formulated in the same manner. Plants ranged in height from 2 to 10 cm and were in the one- to two-leaf stage for the postemergence treatment. Treated plants and untreated controls were maintained in a greenhouse for approximately 10 days, after which time all treated plants were compared to untreated controls and visually evaluated for injury. Plant response ratings, summarized in Table A, are based on a 0 to 100 scale where 0 is no effect and 100 is complete control. A dash (-) response means no test result.

[2] = tested on: Italian ryegrass (Lolium multiflorum); test: Test A postemergence, visual injury rating; details: 0 is no effect, 100 is complete control
From the text: as §1, §2

corn (Zea mays) = test: Test A postemergence, visual injury rating; details: 0 is no effect, 100 is complete control
From the text: as §1, §2

[3] = tested on: blackgrass (Alopecurus myosuroides); test: Test A postemergence, visual injury rating; details: 0 is no effect, 100 is complete control
From the text: as §1, §2

[4] = tested on: giant foxtail (Setaria faberii); test: Test A postemergence, visual injury rating; details: 0 is no effect, 100 is complete control
From the text: as §1, §2

[5] = tested on: ragweed (common ragweed, Ambrosia elatior); test: Test A postemergence, visual injury rating; details: 0 is no effect, 100 is complete control
From the text: as §1, §2

[6] = tested on: galium (catchweed bedstraw, Galium aparine); test: Test A postemergence, visual injury rating; details: 0 is no effect, 100 is complete control
From the text: as §1, §2

[7] = tested on: pigweed (Amaranthus retroflexus); test: Test A postemergence, visual injury rating; details: 0 is no effect, 100 is complete control
From the text: as §1, §2

[8] = tested on: barnyardgrass (Echinochloa crus-galli); test: Test A postemergence, visual injury rating; details: 0 is no effect, 100 is complete control
From the text: as §1, §2

[9] = tested on: wheat (Triticum aestivum); test: Test A postemergence, visual injury rating; details: 0 is no effect, 100 is complete control
From the text: as §1, §2

kochia (Kochia scoparia) [10] = test: Test A preemergence, visual injury rating; details: 0 to 100 scale (0 no effect, 100 complete control)
From the text: as §1, §2

[11] = tested on: Italian ryegrass (Lolium multiflorum); test: Test A preemergence, visual injury rating; details: 0 to 100 scale (0 no effect, 100 complete control)
From the text: as §1, §2

[12] = tested on: giant foxtail (Setaria faberii); test: Test A preemergence, visual injury rating; details: 0 to 100 scale (0 no effect, 100 complete control)
From the text: as §1, §2

[13] = tested on: ragweed (common ragweed, Ambrosia elatior); test: Test A preemergence, visual injury rating; details: 0 to 100 scale (0 no effect, 100 complete control)
From the text: as §1, §2

[14] = tested on: pigweed (Amaranthus retroflexus); test: Test A preemergence, visual injury rating; details: 0 to 100 scale (0 no effect, 100 complete control)
From the text: as §1, §2

[15] = tested on: barnyardgrass (Echinochloa crus-galli); test: Test A preemergence, visual injury rating; details: 0 to 100 scale (0 no effect, 100 complete control)
From the text: as §1, §2

[16] = tested on: ducksalad (Heteranthera limosa); test: Test B flooded paddy test, plant response rating; details: 250 g ai/ha; Flood; scale of 0 to 100 where 0 is no effect and 100 is complete control; 13 to 15 days
From the text: (§3) At time of treatment, test pots were flooded to 3 cm above the soil surface, treated by application of test compounds directly to the paddy water, and then maintained at that water depth for the duration of the test. Treated plants and controls were maintained in a greenhouse for 13 to 15 days, after which time all species were compared to controls and visually evaluated. […] A dash (-) response means no test result.

[17] = tested on: sedge, umbrella (small-flower umbrella sedge, Cyperus difformis); test: Test B flooded paddy test, plant response rating; details: 250 g ai/ha; Flood; scale of 0 to 100 where 0 is no effect and 100 is complete control; 13 to 15 days
From the text: as §3

rice (Oryza sativa) = test: Test B flooded paddy test, plant response rating; details: 250 g ai/ha; Flood; scale of 0 to 100 where 0 is no effect and 100 is complete control; 13 to 15 days
From the text: as §3

[18] = tested on: barnyardgrass (Echinochloa crus-galli); test: Test B flooded paddy test, plant response rating; details: 250 g ai/ha; Flood; scale of 0 to 100 where 0 is no effect and 100 is complete control; 13 to 15 days
From the text: as §3

[19] = 125 g ai/ha, 0 to 100 scale, approximately 10 days

Row | SMILES | Ryegrass, Italian plant response rating (0 to 100 scale) ([2]; 125 g ai/ha) | Ryegrass, Italian plant response rating (0 to 100 scale) ([2]; 500 g ai/ha) | Corn plant response rating (0 to 100 scale) (corn (Zea mays); 125 g ai/ha) | Corn plant response rating (0 to 100 scale) (corn (Zea mays); 500 g ai/ha) | Blackgrass plant response rating (0 to 100 scale) ([3]; 125 g ai/ha) | Blackgrass plant response rating (0 to 100 scale) ([3]; 500 g ai/ha) | Foxtail, Giant plant response rating (0 to 100 scale) ([4]; 125 g ai/ha) | Foxtail, Giant plant response rating (0 to 100 scale) ([4]; 500 g ai/ha) | Ragweed plant response rating (0 to 100 scale) ([5]; 500 g ai/ha) | Galium plant response rating (0 to 100 scale) ([6]; 500 g ai/ha) | Pigweed plant response rating (0 to 100 scale) ([7]; 500 g ai/ha) | Barnyardgrass plant response rating (0 to 100 scale) ([8]; 500 g ai/ha) | Wheat plant response rating (0 to 100 scale) ([9]; 500 g ai/ha) | Kochia plant response rating (kochia (Kochia scoparia) [10]; 500 g ai/ha) | Ryegrass, Italian plant response rating ([11]; 500 g ai/ha) | Foxtail, Giant plant response rating ([12]; 500 g ai/ha) | Ragweed plant response rating ([13]; 500 g ai/ha) | Pigweed plant response rating ([14]; 500 g ai/ha) | Barnyardgrass plant response rating ([15]; 125 g ai/ha) | Barnyardgrass plant response rating ([15]; 500 g ai/ha) | further results
1 | N#CCOC(=O)c1c(Br)cccc1Oc1ncc(Cl)cn1 [Compound 40] | 0 | 0 | 20 | 20 | 10 | 20 | 10 | 40 | 0 | 40 | 100 | 20 | 20 | 90 | 0 | 100 | 0 | 100 | 0 | 50 | Kochia plant response rating (0 to 100 scale) (kochia (Kochia scoparia) [1]; 125 g ai/ha): 70; Kochia plant response rating (0 to 100 scale) (kochia (Kochia scoparia) [1]; 500 g ai/ha): 100; Ragweed plant response rating (0 to 100 scale) ([5]; 125 g ai/ha): 0; Galium plant response rating (0 to 100 scale) ([6]; 125 g ai/ha): 30; Pigweed plant response rating (0 to 100 scale) ([7]; 125 g ai/ha): 70; Barnyardgrass plant response rating (0 to 100 scale) ([8]; 125 g ai/ha): 0; Wheat plant response rating (0 to 100 scale) ([9]; 125 g ai/ha): 0; Kochia plant response rating (kochia (Kochia scoparia) [10]; 125 g ai/ha): 60; Ryegrass, Italian plant response rating ([11]; 125 g ai/ha): 0; Foxtail, Giant plant response rating ([12]; 125 g ai/ha): 20; Ragweed plant response rating ([13]; 125 g ai/ha): 0; Pigweed plant response rating ([14]; 125 g ai/ha): 40
2 | O=C(OCCC(F)(F)F)c1c(F)cccc1Oc1ncc(Br)cn1 [Compound 41] | 0 | 0 | 0 | 0 | 0 | 0 | 0 | 0 | 10 | 0 | 90 | 0 | 0 | 30 | 0 | 0 | 80 | 40 | 0 | 0 | Kochia plant response rating (0 to 100 scale) (kochia (Kochia scoparia) [1]; 125 g ai/ha): 20; Kochia plant response rating (0 to 100 scale) (kochia (Kochia scoparia) [1]; 500 g ai/ha): 60; Ragweed plant response rating (0 to 100 scale) ([5]; 125 g ai/ha): 0; Galium plant response rating (0 to 100 scale) ([6]; 125 g ai/ha): 0; Pigweed plant response rating (0 to 100 scale) ([7]; 125 g ai/ha): 90; Barnyardgrass plant response rating (0 to 100 scale) ([8]; 125 g ai/ha): 0; Wheat plant response rating (0 to 100 scale) ([9]; 125 g ai/ha): 0; Kochia plant response rating (kochia (Kochia scoparia) [10]; 125 g ai/ha): 30; Ryegrass, Italian plant response rating ([11]; 125 g ai/ha): 0; Foxtail, Giant plant response rating ([12]; 125 g ai/ha): 0; Ragweed plant response rating ([13]; 125 g ai/ha): 50; Pigweed plant response rating ([14]; 125 g ai/ha): 30
3 | O=C(OCCC(F)(F)F)c1c(F)cccc1Oc1ncc(Cl)cn1 [Compound 42] | 0 | 0 | 20 | 30 | 0 | 0 | 0 | 0 | 0 | 0 | 90 | 0 | 0 | 0 | 0 | 0 | 0 | 30 | 0 | 0 | Kochia plant response rating (0 to 100 scale) (kochia (Kochia scoparia) [1]; 125 g ai/ha): 30; Kochia plant response rating (0 to 100 scale) (kochia (Kochia scoparia) [1]; 500 g ai/ha): 60; Ragweed plant response rating (0 to 100 scale) ([5]; 125 g ai/ha): 0; Galium plant response rating (0 to 100 scale) ([6]; 125 g ai/ha): 0; Pigweed plant response rating (0 to 100 scale) ([7]; 125 g ai/ha): 80; Barnyardgrass plant response rating (0 to 100 scale) ([8]; 125 g ai/ha): 0; Wheat plant response rating (0 to 100 scale) ([9]; 125 g ai/ha): 0; Kochia plant response rating (kochia (Kochia scoparia) [10]; 125 g ai/ha): 0; Ryegrass, Italian plant response rating ([11]; 125 g ai/ha): 0; Foxtail, Giant plant response rating ([12]; 125 g ai/ha): 0; Ragweed plant response rating ([13]; 125 g ai/ha): 0; Pigweed plant response rating ([14]; 125 g ai/ha): 0
4 | O=C(OCCCC(F)(F)F)c1c(Oc2ncc(Cl)cn2)cccc1C(F)(F)F [Compound 65] | 0 | 0 | 10 | 20 | 20 | 40 | 40 | 90 | 30 | 70 | 100 | 70 | 0 | 90 | 30 | 100 | 80 | 100 | 30 | 100 | Ragweed plant response rating (0 to 100 scale) ([5]; 125 g ai/ha): 10; Galium plant response rating (0 to 100 scale) ([6]; 125 g ai/ha): 20; Pigweed plant response rating (0 to 100 scale) ([7]; 125 g ai/ha): 90; Barnyardgrass plant response rating (0 to 100 scale) ([8]; 125 g ai/ha): 30; Wheat plant response rating (0 to 100 scale) ([9]; 125 g ai/ha): 0; Plant response rating, Ducksalad [16]: 70; Plant response rating, Sedge, Umbrella [17]: 85; Plant response rating, Rice (rice (Oryza sativa)): 0; Plant response rating, Barnyardgrass [18]: 0; Kochia plant response rating (kochia (Kochia scoparia) [10]; 125 g ai/ha): 60; Ryegrass, Italian plant response rating ([11]; 125 g ai/ha): 10; Foxtail, Giant plant response rating ([12]; 125 g ai/ha): 100; Ragweed plant response rating ([13]; 125 g ai/ha): 0; Pigweed plant response rating ([14]; 125 g ai/ha): 100
5 | CCOCc1c(Br)cccc1Oc1ncc(Cl)cn1 [Compound 106] |  | 0 |  | 10 |  | 20 |  | 70 | 0 | 10 | 20 | 100 | 0 | 90 | 10 | 100 | 0 | 70 | 0 | 100 | Ryegrass, Italian plant response rating [2, 19]: 0; Corn plant response rating (corn (Zea mays); [19]): 0; Blackgrass plant response rating [3, 19]: 0; Foxtail, Giant plant response rating [4, 19]: 10; Ragweed plant response rating [5, 19]: 0; Galium plant response rating [6, 19]: 0; Pigweed plant response rating [7, 19]: 10; Barnyardgrass plant response rating [8, 19]: 40; Wheat plant response rating [9, 19]: 0; Plant response rating, Ducksalad [16]: 0; Plant response rating, Sedge, Umbrella [17]: 0; Plant response rating, Rice (rice (Oryza sativa)): 0; Plant response rating, Barnyardgrass [18]: 0; Plant response rating, Kochia (kochia (Kochia scoparia) [10]; 125 g ai/ha): 30; Plant response rating, Ryegrass, Italian ([11]; 125 g ai/ha): 0; Plant response rating, Foxtail, Giant ([12]; 125 g ai/ha): 80; Plant response rating, Ragweed ([13]; 125 g ai/ha): 0; Plant response rating, Pigweed ([14]; 125 g ai/ha): 30
